From EP2958918B1, “DIHYDROPTERIDINONES II” (Boehringer Ingelheim International GmbH, priority 2013, dated 2014) come the findings set out here.

For orientation: pIC50 means the negative decadic logarithm of the IC50, by convention in mol/L. A low value points to a high IC50.

SMILES strings stand for the structures. pIC50: −log10 of the molar value.

One test relates to Aβ42. Nature of the test: Aβ42 cellular assay: inhibition of Aβ42 production in H4 neuroglioma cells stably expressing human APP695, electrochemiluminescence (Meso Scale Discovery) on supernatant. To be noted: 22 hours incubation, tested range 30 µM to 0.1 nM. The class given is cell-based. The procedure:
(§1) Cells were plated out to near confluency. The compounds to be tested were received as 10 mM stocks in 100% DMSO. A dilution series was initially generated in 100% DMSO and then diluted 200-fold in cell culture media such that the tested concentration range was 30 µM to 0.1 nM and the final DMSO concentration was 0.5%. The diluted compounds were incubated with the cells for 22 hours in an incubator at 37°C and 5% CO2. Aβ42 as well as Aβ total levels were then measured post-incubation from the supernatant of the cells. Aβ42 levels were determined using a specific electrochemiluminescence assay provided by Meso Scale Discovery (Catalog # L21CA-1) according to the manufacturer's protocol. Aβ total levels were likewise determined using a specific electrochemiluminescence assay provided by Meso Scale Discovery (Catalog # L21ZA-1) according to the manufacturer's protocol.
(§2) In order to absolutely define the described compounds as modulators of y-Secretase as opposed to simply inhibitors of γ-Secretase, measurements of not only Aβ42 but also Aβ total are performed.
The molecule `COc1cc(Nc2ncc3c(n2)N(C)C2(COCCOC2)C(=O)N3)ccc1-n1cnc(C)c1` [Example 25] showed a pIC50 of 6.54.

Molecule `COc1cc(Nc2ncc3c(n2)N(C)C2(CCOC2)C(=O)N3CC2CCOCC2)ccc1-n1cnc(C)c1` (stereo not drawn) [Example 26] gave a pIC50 of 6.46.

Take `COc1cc(Nc2ncc3c(n2)N(C)C2(COCCOC2)C(=O)N3C)ccc1-n1cnc(C)c1` [Example 27]: the pIC50 was 6.57.

As to `COc1cc(Nc2ncc3c(n2)NC2(CCOC2)C(=O)N3C2COC2)ccc1-n1cnc(C)c1` (stereo not drawn) [Example 28], the negative logarithm of the IC50 (pIC50) was 4.98. Against the preceding molecule, the pIC50 is 1.59 log units lower.

As for `COc1cc(Nc2ncc3c(n2)NC2(CCOC2)C(=O)N3CCC(C)C)ccc1-n1cnc(C)c1` (stereo not drawn) [Example 29], the pIC50 was 6.57.

For the molecule `COCCN1c2nc(Nc3ccc(-n4cnc(C)c4)c(OC)c3)nc(CC(C)C)c2N(C)C(=O)C12CCOC2` (stereo not drawn) [Example 30], the pIC50 was 7.00.

Turning to `COCCN1c2nc(Nc3ccc(-c4cnc(C)o4)c(OC)c3)nc(CC(C)C)c2N(C)C(=O)C12CCOC2` (stereo not drawn) [Example 31], the pIC50 was 6.74.

In turn, `COc1cc(Nc2nc(CC(C)C)c3c(n2)N(C)C2(CCOC2)C(=O)N3C)ccc1-n1cnc(C)c1` (stereo not drawn) [Example 32] had a pIC50 of 7.10.

As for `COc1cc(Nc2nc(CC(C)C)c3c(n2)NC2(CCOC2)C(=O)N3)ccc1-n1cnc(C)c1` (stereo not drawn) [Example 33], the pIC50 is 6.85. This pIC50 lies 0.25 log units lower than the previous one.

Molecule `CCc1nc(Nc2ccc(-n3cnc(C)c3)c(OC)c2)nc2c1N(C)C(=O)C1(CCOC1)N2C` (stereo not drawn) [Example 34] showed a pIC50 of 7.14.

Turning to `CCc1nc(Nc2ccc(-n3cnc(C)c3)c(C#N)c2)nc2c1N(C)C(=O)C1(CCOC1)N2C` (stereo not drawn) [Example 35], the pIC50 was 7.12. This pIC50 and that of the molecule before are within 0.2 log units of each other.

Molecule `COc1cc(Nc2ncc3c(n2)N(C)C2(CCc4ccccc4C2)C(=O)N3C)ccc1-n1cnc(C)c1` (stereo not drawn) [Example 36] had a pIC50 of 7.16.

`Cc1ncc(-c2ccc(Nc3ncc4c(n3)N(C)C3(CCc5ccccc5C3)C(=O)N4C)cn2)o1` (stereo not drawn) [Example 37] had a negative logarithm of the IC50 (pIC50) of 6.03.

In turn, `COc1cc(Nc2ncc3c(n2)N(C)C2(CCOC2)C(=O)N3c2ccc(F)cc2)ccc1-n1cnc(C)c1` (stereo not drawn) [Example 37a] gave a pIC50 of 7.22.

Consider `COc1cc(Nc2ncc3c(n2)N(C)C2(CCOCC2)C(=O)N3C2CC2)ccc1-n1cnc(C)c1` [Example 37b], for which the pIC50 was 6.76.

`COc1cc(Nc2ncc3c(n2)N(C)C2(CCOCC2)C(=O)N3c2cc(F)cc(F)c2)ccc1-n1cnc(C)c1` [Example 37c]: the pIC50 is 6.94.

The molecule `COc1cc(Nc2nc3c(c(C(F)(F)F)n2)N(C)C(=O)C2(CCOCC2)N3C)ccc1-n1cnc(C)c1` [Example 37d] gave a negative-log IC50 (pIC50) of 6.09.

In turn, `COc1cc(Nc2ncc3c(n2)N(C)C2(CCOC2)C(=O)N3CC(F)(F)F)ccc1-n1cnc(C)c1` (stereo not drawn) [Example 37e] showed a pIC50 of 7.07.

For `COc1cc(Nc2ncc3c(n2)N(C)C2(CCOCC2)C(=O)N3c2ccc(F)cc2)ccc1-n1cnc(C)c1` [Example 37f], the pIC50 is 6.84.

In turn, `COc1cc(Nc2ncc3c(n2)N(C)C2(CCOC2)C(=O)N3C2CC2)ccc1-n1cnc(C)c1` (stereo not drawn) [Example 37g] gave a negative logarithm of the IC50 (pIC50) of 6.71.

Take `COc1cc(Nc2ncc3c(n2)N(C)C2(CCOC2)C(=O)N3CC(F)F)ccc1-n1cnc(C)c1` (stereo not drawn) [Example 37h]: the pIC50 was 6.91.

`CCc1nc(Nc2cnc(-n3cnc(C)c3)c(OC)c2)nc2c1N(C)C(=O)C1(CC1)N2C` [Example 37i]: the pIC50 was 6.82. The pIC50 values of the last two molecules are within 0.2 log units of each other.

`COc1cc(Nc2ncc3c(n2)N(C)C2(CCOCC2)C(=O)N3Cc2ccc(F)cc2F)ccc1-n1cnc(C)c1` [Example 37j] had a pIC50 of 7.14.

Molecule `COc1cc(Nc2ncc3c(n2)N(C)C2(CCOC2)C(=O)N3C(C)c2ccccn2)ccc1-n1cnc(C)c1` (stereo not drawn) [Example 37k] showed a pIC50 of 6.92.

A further test deals with Aβ total. Nature of the test: Aβ total cellular assay: inhibition of Aβ total production in H4 neuroglioma cells stably expressing human APP695, electrochemiluminescence (Meso Scale Discovery) on supernatant; used for the ratio Aβ total IC50 / Aβ42 IC50. The class given is cell-based. The note with it: higher ratio = more specific inhibition of Aβ42. The method, then: as §1, §2
With `COc1cc(Nc2ncc3c(n2)N(C)C2(COCCOC2)C(=O)N3)ccc1-n1cnc(C)c1` [Example 25], the “Ratio Aß(total)/Aß42” value stood at 91.

In the case of `COc1cc(Nc2ncc3c(n2)N(C)C2(CCOC2)C(=O)N3CC2CCOCC2)ccc1-n1cnc(C)c1` (stereo not drawn) [Example 26], the “Ratio Aß(total)/Aß42” value is reported as 46.

Regarding `COc1cc(Nc2ncc3c(n2)N(C)C2(COCCOC2)C(=O)N3C)ccc1-n1cnc(C)c1` [Example 27], the “Ratio Aß(total)/Aß42” value was over 112.

Consider `COc1cc(Nc2ncc3c(n2)NC2(CCOC2)C(=O)N3C2COC2)ccc1-n1cnc(C)c1` (stereo not drawn) [Example 28], for which the “Ratio Aß(total)/Aß42” value was over 3.

Regarding `COc1cc(Nc2ncc3c(n2)NC2(CCOC2)C(=O)N3CCC(C)C)ccc1-n1cnc(C)c1` (stereo not drawn) [Example 29], the “Ratio Aß(total)/Aß42” value was found to be 39.

As to `COCCN1c2nc(Nc3ccc(-n4cnc(C)c4)c(OC)c3)nc(CC(C)C)c2N(C)C(=O)C12CCOC2` (stereo not drawn) [Example 30], the “Ratio Aß(total)/Aß42” value is given as 96.

With `COCCN1c2nc(Nc3ccc(-c4cnc(C)o4)c(OC)c3)nc(CC(C)C)c2N(C)C(=O)C12CCOC2` (stereo not drawn) [Example 31], the “Ratio Aß(total)/Aß42” value is listed as 47.

As for `COc1cc(Nc2nc(CC(C)C)c3c(n2)N(C)C2(CCOC2)C(=O)N3C)ccc1-n1cnc(C)c1` (stereo not drawn) [Example 32], the “Ratio Aß(total)/Aß42” value is recorded as 124.

Take `COc1cc(Nc2nc(CC(C)C)c3c(n2)NC2(CCOC2)C(=O)N3)ccc1-n1cnc(C)c1` (stereo not drawn) [Example 33]: the “Ratio Aß(total)/Aß42” value is recorded as 124.

For `CCc1nc(Nc2ccc(-n3cnc(C)c3)c(OC)c2)nc2c1N(C)C(=O)C1(CCOC1)N2C` (stereo not drawn) [Example 34], the “Ratio Aß(total)/Aß42” value turned out to be 115.

For the molecule `CCc1nc(Nc2ccc(-n3cnc(C)c3)c(C#N)c2)nc2c1N(C)C(=O)C1(CCOC1)N2C` (stereo not drawn) [Example 35], the “Ratio Aß(total)/Aß42” value was 180.

Take `COc1cc(Nc2ncc3c(n2)N(C)C2(CCc4ccccc4C2)C(=O)N3C)ccc1-n1cnc(C)c1` (stereo not drawn) [Example 36]: the “Ratio Aß(total)/Aß42” value was found to be 179.

For `Cc1ncc(-c2ccc(Nc3ncc4c(n3)N(C)C3(CCc5ccccc5C3)C(=O)N4C)cn2)o1` (stereo not drawn) [Example 37], the “Ratio Aß(total)/Aß42” value came out at 29.

Turning to `COc1cc(Nc2ncc3c(n2)N(C)C2(CCOC2)C(=O)N3c2ccc(F)cc2)ccc1-n1cnc(C)c1` (stereo not drawn) [Example 37a], the “Ratio Aß(total)/Aß42” value is 307.

Regarding `COc1cc(Nc2ncc3c(n2)N(C)C2(CCOCC2)C(=O)N3C2CC2)ccc1-n1cnc(C)c1` [Example 37b], the “Ratio Aß(total)/Aß42” value came out at 47.

As to `COc1cc(Nc2ncc3c(n2)N(C)C2(CCOCC2)C(=O)N3c2cc(F)cc(F)c2)ccc1-n1cnc(C)c1` [Example 37c], the “Ratio Aß(total)/Aß42” value is recorded as 75.

Take `COc1cc(Nc2nc3c(c(C(F)(F)F)n2)N(C)C(=O)C2(CCOCC2)N3C)ccc1-n1cnc(C)c1` [Example 37d]: the “Ratio Aß(total)/Aß42” value is reported as over 36.

Regarding `COc1cc(Nc2ncc3c(n2)N(C)C2(CCOC2)C(=O)N3CC(F)(F)F)ccc1-n1cnc(C)c1` (stereo not drawn) [Example 37e], the “Ratio Aß(total)/Aß42” value worked out at 82.

For the molecule `COc1cc(Nc2ncc3c(n2)N(C)C2(CCOCC2)C(=O)N3c2ccc(F)cc2)ccc1-n1cnc(C)c1` [Example 37f], the “Ratio Aß(total)/Aß42” value came to 55.

`COc1cc(Nc2ncc3c(n2)N(C)C2(CCOC2)C(=O)N3C2CC2)ccc1-n1cnc(C)c1` (stereo not drawn) [Example 37g]: the “Ratio Aß(total)/Aß42” value was 58.

On to `COc1cc(Nc2ncc3c(n2)N(C)C2(CCOC2)C(=O)N3CC(F)F)ccc1-n1cnc(C)c1` (stereo not drawn) [Example 37h], for which the “Ratio Aß(total)/Aß42” value is on record as 85.

For `CCc1nc(Nc2cnc(-n3cnc(C)c3)c(OC)c2)nc2c1N(C)C(=O)C1(CC1)N2C` [Example 37i], the “Ratio Aß(total)/Aß42” value is 54.

For the molecule `COc1cc(Nc2ncc3c(n2)N(C)C2(CCOCC2)C(=O)N3Cc2ccc(F)cc2F)ccc1-n1cnc(C)c1` [Example 37j], the “Ratio Aß(total)/Aß42” value worked out at 57.

In the case of `COc1cc(Nc2ncc3c(n2)N(C)C2(CCOC2)C(=O)N3C(C)c2ccccn2)ccc1-n1cnc(C)c1` (stereo not drawn) [Example 37k], the “Ratio Aß(total)/Aß42” value came out at 88.
